pKi: −log10 of the molar value. Numbered stars: 1 amine (or outer) side, 2 acyl side, 3 side chain; on linkers, the order of the positions; unused ones are H or OH. Square brackets hold non-standard residues; d marks the D form. Peptide text beside a SMILES is read from it. * marks the point of attachment. X1 = O=C(O)C1(OCCCCC(=O)[*:2])CC(O)C(N[*:1])C([C@@H](O)[C@H](O)CO)O1; NH(1-naphthylmethyl) = c1ccc2c(CN*)cccc2c1

The nature of the assay: Tested for inhibition of hemagglutinination in chicken red blood cell (RBC). The assay is classed as functional, Gallus gallus.
A word on the pKi: it is the Ki on a negative log10 scale, so that one unit is a factor of ten. Take `C=CC(=O)NOCCCOCCCCOC1(C(N)=O)CC(O)C(NC(C)=O)C([C@@H](O)[C@H](O)CO)O1` (some centres undefined): the pKi was < 3.22.
`COC(=O)C1(OC)CC(O)C(NC(C)=O)C([C@@H](O)[C@H](O)CO)O1` (some centres undefined) showed a pKi of 1.85.
Turning to `C=CC(=O)NCCCOCCCCOC1(C(=O)O)CC(O)C(NC(C)=O)C([C@@H](O)[C@H](O)CO)O1` (some centres undefined), the pKi is 3.00.
Regarding `CC(=O)NC1C(OC(=O)CNS(=O)(=O)c2cccc3c(N(C)C)cccc23)CC(OCCCCCCC(=O)NCc2cccc3ccccc23)(C(=O)O)OC1[C@@H](O)[C@H](O)CO` (some centres undefined), the pKi is 5.52.
With `COC1(C(=O)O)CC(O)C(NC(C)=O)C([C@@H](O)C(O)O)O1` (some centres undefined), the pKi is 2.60. Compared with the last compound, the pKi is 2.92 log units lower.
Turning to `C=CC(=O)NOCCCOCCCCOC1(C(C)=O)CC(O)C(NC(C)=O)C([C@@H](O)[C@H](O)CO)O1` (some centres undefined), the pKi is < 3.22.
For the compound `C=CC(=O)NOCCCOCCCCOC1(C(=O)O)CC(O)C(NC(C)=O)C([C@@H](O)[C@H](O)CO)O1` (some centres undefined), the pKi is 6.52.
With `COC1(C(=O)O)CC(O)C(NC(C)=O)C([C@@H](O)[C@H](O)CO)O1` (some centres undefined), the pKi was 2.60.
Regarding `CC(=O)NC1C(O)CC(OCCCCC(=O)NCC(=O)NCC(=O)NCC(=O)NCC(=O)NCc2cccc3ccccc23)(C(=O)O)OC1[C@@H](O)[C@H](O)CO` (some centres undefined) (Ac-[X1]GGGG-{NH(1-naphthylmethyl)}), the pKi is 4.52.
